Measured values published in patent US5571789A (Haemopep Pharma GmbH, priority 1992, dated 1996).
Entries after “also recorded” stand apart in the source; their conditions may differ.

Columns and labels:
[1] = cited from earlier work
[2] = test system: spontaneous respiration parameters (F, PTP, VT, Cdyn, RL, f, MV); assay: Spontaneous respiration parameters by body plethysmograph in narcotized rats; type: in vivo, wistar rats; settings: for Effect of infusion on spontaneous respiration parameters after ACh provocation: after total inhalation of 600 ml ACh, groups B-D versus control
Method: (§1) A total of 33 female 12 week wistar rats having body weights of 300 g served as test animals. The design of the study was that of a simple blind approach. On each of the experiment days, animals of the control group and of the verum group were measured.
(§2) After steady state conditions were attained the initial values of spontaneous respiration were measured first. Thereafter, a randomized infusion of placebo, urodilatin, or ANP was started. In each case evaluations of the continuously determined spontaneous parameters were made 5 minutes after the beginning of the infusion before an inhalatory acetylcholin (ACh) provocation was made (basic values before Ach provocation).
(§3) 5 minutes after the beginning of the infusion each rat was provoked by inhalation of a defined amount of an ACh aerosol. Evaluation of the spontaneous respiration parameters for each animal was performed after a total inhalation volume of 600 ml (values at the end of ACh provocation).

[3] = test system: broncho-constriction caused by inhalation of acetylcholin; assay: Forced expiration (spirography, flow-volume curve) at the end of inhalatory acetylcholin provocation in rats under i.v. infusion; type: in vivo, wistar rats
Method: as §1
Employing a test animal body plethysmograph allowed for continuous measurement of the respiration volume (VT), respiration frequency (f), respiration minute volume (MV), resistance of the lung (RL), dynamic compliance (Cdyn), respiration flow (F) and transpulmonary pressure (PTP) of a narcotized, intubated and spontaneously breathing rat. Circulation monitoring was accomplished by EKG recording with evaluation of the heart frequency (HR).
as §2, with “Thereafter, a randomized infusion of placebo, urodilatin, or ANP was started.” left out
By means of an injectomar device the test animals were infused 0.5 ml of solution continuously over a total of 10 minutes.
as §3
To complete the experiments, a forced expiration was performed on each animal in hyperventilation induced apnea. Flow-volume and flow-time (spirography) relations were recorded. The flow-volume curve allows for the evaluation of peak expiratory flow (=PEF), maximum mid-expiratory flow (=MMEF), and flow at 75, 50, 25, and 10% of the forced vital capacity (e.g. FEF 75). Spirography of rats primarily yields the forced vital capacity (FVC) and the expired volume after 0.05, 0.10, 0.20 and 0.40 seconds as an absolute value in ml (e.g. FEV 0.05) or in percent of FVC (e.g. FEV 0.05%).

[4] = test system: bronchial asthma (lung function parameters); assay: Lung function in patients with bronchial asthma under 40 minute i.v. infusion; type: in vivo, human; settings: for FEV1.0 versus pre values and 20 ng/kg/min group: after 10 minutes of infusion; for PEF, MEF75, MEF50 and MEF25: during infusion; for VCmax versus pre values: during infusion and until 10 minutes thereafter
Source text: The anamnesis gave no evidence for an exacerbation of the disease in the last 8 weeks. No nicotine abuse was known from any of the patients. Additional inclusion criteria were defined by an expiratory one-second-capacity (FEV1.0) of 40 to 70% of the maximum vital capacity (VCmax) before administration of a broncho-spasmolytic agent, an effect of a β2 -sympathomimetic on FEV1.0 of ≥15%, no alteration of the maintenance antiobstructive treatment and no administration of oral corticoids in the last 4 weeks before the beginning of the study. Within 8 hours before the beginning of the examinations no inhalatory application of a β2 -sympathomimetic must have occurred anymore.

[5] = group B, 40 ng/kg/min, 5 minutes after beginning of infusion, before ACh
[6] = group B, 40 ng/kg/min i.v. infusion, end of ACh provocation

In the case of `CC[C@H](C)[C@@H]1NC(=O)[C@H](CCCNC(=N)N)NC(=O)[C@H](CC(=O)O)NC(=O)[C@H](CCSC)NC(=O)[C@H](CCCNC(=N)N)NC(=O)CNC(=O)CNC(=O)[C@H](Cc2ccccc2)NC(=O)[C@@H](NC(=O)[C@H](CO)NC(=O)[C@H](CO)NC(=O)[C@H](CCCNC(=N)N)NC(=O)[C@H](CCCNC(=N)N)NC(=O)[C@H](CC(C)C)NC(=O)[C@@H](N)CO)CSSC[C@@H](C(=O)N[C@@H](CC(N)=O)C(=O)N[C@@H](CO)C(=O)N[C@@H](Cc2ccccc2)C(=O)N[C@@H](CCCNC(=N)N)C(=O)N[C@@H](Cc2ccc(O)cc2)C(=O)O)NC(=O)CNC(=O)[C@H](CC(C)C)NC(=O)CNC(=O)[C@H](CO)NC(=O)[C@H](CCC(N)=O)NC(=O)[C@H](C)NC(=O)CNC1=O` [ANP, atrial natriuretic peptide, reference compound], the Hypotensive effect ([1]; in vivo, iv) is listed as “hypotensive effect observed”, the “Effect of infusion on spontaneous respiration parameters after ACh provocation” value [2] is listed as “without a significant effect” and the “Effect on the ACh induced changes of the parameters of forced expiration” value ([3]; 70.305 ng/kg/min, equimolar with 80 ng/kg/min urodilatin) is listed as “less clearly seen”. For the same compound, the “Flow-volume curve parameters versus control group A” value ([3]; group D, 70.305 ng/kg/min i.v. infusion (equimolar to group C), end of ACh provocation) was “significant increase only of PEF and FEF 75”.
For `CC(C)(C)NCC(O)c1ccc(O)c(CO)c1` (stereo not shown) [Salbutamol, reference compound], the FEV1.0 ([4]; 1.25 mg Salbutamol inhaled, all three groups) was “significant increase in FEV1.0” and the “Flow-volume parameters (PEF, MEF75, MEF50, MEF25)” value ([4]; Salbutamol inhalation, all dosage groups) was “significant effect”.
With urodilatin the “FEV1.0 versus pre values” ([4]; 20 ng/kg/min, any time during or after the infusion) was “did not show any significant effect”, the Flow-volume parameters ([4]; 20 ng/kg/min, p<0.05 after 10 and 30 minutes of infusion) was “increase of the MEF75 measurement value alone” and the “FEV1.0 versus initial values 30 minutes after completion of the infusion” value ([4]; 40 ng/kg/min) was “still significantly different from the initial values”. For the same compound, the “Maxima of PEF, MEF75, MEF50, MEF25 under infusion versus results after Salbutamol inhalation” value ([4]; 40 ng/kg/min) was “not significantly different from the measurement results after Salbutamol inhalation, except for MEF50”, the “Time of maximum FEV1.0 values” ([4]; 40 ng/kg/min infusion) was 30 min and the “FEV1.0 versus pre values and 20 ng/kg/min group” value ([4]; 40 ng/kg/min) was “significant increase”. The “PEF, MEF75, MEF50 and MEF25” value ([4]; 40 ng/kg/min) was “increased during the infusion”, the “VCmax versus pre values” ([4]; 40 ng/kg/min) was “significant increase” and the “Maxima of PEF, MEF75, MEF50, MEF25 under infusion versus results after Salbutamol inhalation” value ([4]; 60 ng/kg/min) was “not significantly different”. For the same compound, the “Maximum FEV1.0 effect versus values after inhalation of Salbutamol” value ([4]; 60 ng/kg/min) was “no longer significantly different”, the “Time of maximum effect on FEV1.0” value ([4]; 60 ng/kg/min infusion) was 20 min and the “FEV1.0 versus pre values and 20 ng/kg/min group” value ([4]; 60 ng/kg/min) was “significant increase”. For the same compound, the “PEF, MEF75, MEF50 and MEF25” value ([4]; 60 ng/kg/min) was “increased during the infusion”, the “VCmax versus pre values” ([4]; 60 ng/kg/min) was “significant increase” and the “VCmax maxima versus results after Salbutamol inhalation” value ([4]; 40 and 60 ng/kg/min) was “did not show any significant differences”. The “MEF50, difference between 40 and 60 ng/kg/min” value ([4]; after 20 minutes of infusion) was “significant difference”, the Broncho-dilatation ([4]; intravenous infusion of 40 and 60 ng/kg/min over 40 minutes, clinically stable bronchial asthma) was “did not result in a significant broncho-dilatation” and the “Glomerular filtration rate, excretion of water, sodium and chloride” value ([1]; intravenous application) was “increase the glomerular filtration rate, the excretion of water, sodium and chloride”. For the same compound, the “Effect of infusion on spontaneous respiration parameters after ACh provocation” value [2] was “without a significant effect”, the “Cdyn versus initial values” [2, 5] was “small, significant decrease” and the “PTP and RL versus initial values” [2, 5] was “slight, significant increase”. The “Respiration frequency versus initial values” ([2]; group C, 80 ng/kg/min, 5 minutes after beginning of infusion, before ACh) was “slight, significant decrease”, the “Protective effect at 40 ng/kg/min versus ANP in a twofold higher dose on a molar basis” value ([3]; 40 ng/kg/min versus 70.305 ng/kg/min ANP) was “clearly more effective than ANP; also recorded: more obvious protective effect than ANP” and the “Protection from broncho-constriction (improved forced expiration)” value ([3]; animal experiments, parenteral administration) was “obvious protection”. The “Effect compared with equimolar doses of ANP” value ([3]; broncho-constriction by inhaled acetylcholin, parenteral administration) was “more than two times greater”, the “FEV 0.1% (expired volume after 0.1 seconds based on FVC) versus control group A” value [3, 6] was “significant improvement” and the “PEF, MMEF, FEF 75, FEF 50 and FEF 25 of the forced expiratory flow-volume curve versus control group A” value [3, 6] was “clear improvement”. For the same compound, the “PEF, MMEF, FEF 75, FEF 50 and FEF 25 of the forced expiratory flow-volume curve versus control group A” value ([3]; group C, 80 ng/kg/min i.v. infusion, end of ACh provocation) was “clear improvement”, the “Effectiveness and duration of action versus ANP (flow-volume curves, FIGS. 1 to 3)” value ([3]; groups B and C (40, 80 ng/kg/min) versus group D (70.3 ng/kg/min ANP)) was “more effective and acts for a longer period of time” and the “Other FEV and FEV % values, comparison of groups A-D” value ([3]; i.v. infusion 40 or 80 ng/kg/min, end of ACh provocation) was “not significantly distinct”. The “Effect on the ACh induced changes of the parameters of forced expiration relative to control group A” value ([3]; infusion of 40 and 80 ng/kg/min) was “clearly protective effects”.
